Experimental data published in US20260048047A1, “SMALL-MOLECULE ACTIVATORS OF MYCOBACTERIUM TUBERCULOSIS ADENYLYL CYCLASE” (priority 2022, published 2026).

These compounds were tested on M. tuberculosis (assay: Extracellular activity against M. tuberculosis in cholesterol media (Alamar Blue reduction assay)). Settings: 7H12-Cholesterol media, 10 days; read-out: Cholesterol broth: alamar blue--EC50.
Assay type: cell-based, Mycobacterium tuberculosis

Compound	EC50 [µM]
O=C(Cc1cnccn1)N1CCC(n2nnc(-c3ccc(F)cc3)n2)CC1 [Compound 2, 1-(4-(5-(4-fluorophenyl)-2H-tetrazol-2-yl)piperidin-1-yl)-2-(pyrazin-2-yl)ethan-1-one]	> 10
O=C(Cc1cnccn1)N1CCC(n2nnc(-c3ccc(F)cc3)n2)CC1 [Compound 4, 1-(4-(5-(4-fluorophenyl)-2H-tetrazol-2-yl)piperidin-1-yl)-2-(pyrazin-2-yl)ethan-1-one]	0.122

Same assay, conditions: Mycobacterium tuberculosis, 240 h, 7H12-Cholesterol media, 10 days; read-out: Cholesterol broth: alamar blue--EC50

Compound	EC50 [µM]
O=C(Cc1cc(=O)[nH]c(=O)[nH]1)N1CCC(c2nc(-c3ccc(F)cc3)no2)CC1 [Compound 1, 6-(2-(4-(3-(4-fluorophenyl)-1,2,4-oxadiazol-5-yl)piperidin-1-yl)-2-oxoethyl)pyrimidine-2,4(1H,3H)-dione]	0.784
O=c1cc(CN2CCC(c3nc(-c4ccc(Cl)c(Cl)c4)no3)CC2)[nH]c(=O)[nH]1 [Compound 3, 6-((4-(3-(3,4-dichlorophenyl)-1,2,4-oxadiazol-5-yl)piperidin-1-yl)methyl)pyrimidine-2,4(1H,3H)-dione]	0.179
CC(C)c1noc(CC(=O)N2CCC(c3nc(-c4ccc(Cl)c(Cl)c4)no3)CC2)n1 [Compound 5, 1-(4-(3-(3,4-dichlorophenyl)-1,2,4-oxadiazol-5-yl)piperidin-1-yl)-2-(3-isopropyl-1,2,4-oxadiazol-5-yl)ethan-1-one]	1.43
CC(C)c1noc(CC(=O)N2CCC(c3nc(-c4ccc(F)cc4)no3)CC2)n1 [Compound 6, 1-(4-(3-(4-fluorophenyl)-1,2,4-oxadiazol-5-yl)piperidin-1-yl)-2-(3-isopropyl-1,2,4-oxadiazol-5-yl)ethan-1-one]	2.98
Cc1cncnc1CC(=O)N1CCC(c2nc(C3CCCCC3)no2)CC1 [Compound 7, 1-(4-(3-cyclohexyl-1,2,4-oxadiazol-5-yl)piperidin-1-yl)-2-(5-methylpyrimidin-4-yl)ethan-1-one]	> 25
Cc1cncnc1CC(=O)N1CCC(c2nc(-c3ccc(Cl)c(Cl)c3)no2)CC1 [Compound 8, 1-(4-(3-(3,4-dichlorophenyl)-1,2,4-oxadiazol-5-yl)piperidin-1-yl)-2-(5-methylpyrimidin-4-yl)ethan-1-one]	0.479
Cc1cncnc1CC(=O)N1CCC(c2nc(-c3ccc(F)cc3)no2)CC1 [Compound 9, 1-(4-(3-(4-fluorophenyl)-1,2,4-oxadiazol-5-yl)piperidin-1-yl)-2-(5-methylpyrimidin-4-yl)ethan-1-one]	3.68
Cc1conc1CC(=O)N1CCC(c2nc(-c3ccc(Cl)c(Cl)c3)no2)CC1 [Compound 10, 1-(4-(3-(3,4-dichlorophenyl)-1,2,4-oxadiazol-5-yl)piperidin-1-yl)-2-(4-methylisoxazol-3-yl)ethan-1-one]	0.284
Cc1conc1CC(=O)N1CCC(c2nc(-c3ccc(F)cc3)no2)CC1 [Compound 11, 1-(4-(3-(4-fluorophenyl)-1,2,4-oxadiazol-5-yl)piperidin-1-yl)-2-(4-methylisoxazol-3-yl)ethan-1-one]	1.43
Cc1nc(CC(=O)N2CCC(c3nc(-c4ccc(F)cc4)no3)CC2)no1 [Compound 12, 1-(4-(3-(4-fluorophenyl)-1,2,4-oxadiazol-5-yl)piperidin-1-yl)-2-(5-methyl-1,2,4-oxadiazol-3-yl)ethan-1-one]	> 10
Cc1nccnc1CC(=O)N1CCC(c2nc(C3CCCCC3)no2)CC1 [Compound 13, 1-(4-(3-cyclohexyl-1,2,4-oxadiazol-5-yl)piperidin-1-yl)-2-(3-methylpyrazin-2-yl)ethan-1-one]	> 25
Cc1nccnc1CC(=O)N1CCC(c2nc(-c3ccc(Cl)c(Cl)c3)no2)CC1 [Compound 14, 1-(4-(3-(3,4-dichlorophenyl)-1,2,4-oxadiazol-5-yl)piperidin-1-yl)-2-(3-methylpyrazin-2-yl)ethan-1-one]	8.32
Cc1nccnc1CC(=O)N1CCC(c2nc(-c3ccc(F)cc3)no2)CC1 [Compound 15, 1-(4-(3-(4-fluorophenyl)-1,2,4-oxadiazol-5-yl)piperidin-1-yl)-2-(3-methylpyrazin-2-yl)ethan-1-one]	1.22
Cc1nnn(CC(=O)N2CCC(c3nc(-c4ccc(Cl)c(F)c4)no3)CC2)n1 [Compound 16, 1-(4-(3-(4-chloro-3-fluorophenyl)-1,2,4-oxadiazol-5-yl)piperidin-1-yl)-2-(5-methyl-2H-tetrazol-2-yl)ethan-1-one]	0.79
Cc1nnnn1CC(=O)N1CCC(c2nc(-c3ccc(Cl)c(F)c3)no2)CC1 [Compound 17, 1-(4-(3-(4-chloro-3-fluorophenyl)-1,2,4-oxadiazol-5-yl)piperidin-1-yl)-2-(5-methyl-1H-tetrazol-1-yl)ethan-1-one]	0.16
Cc1noc(CC(=O)N2CCC(c3nc(C4CC5CCC4C5)no3)CC2)n1 (stereo not drawn) [Compound 18, 1-(4-(3-(bicyclo[2.2.1]heptan-2-yl)-1,2,4-oxadiazol-5-yl)piperidin-1-yl)-2-(3-methyl-1,2,4-oxadiazol-5-yl)ethan-1-one]	> 10
Cc1noc(CC(=O)N2CCC(c3nc(C4CCC5(CC4)OCCO5)no3)CC2)n1 [Compound 19, 1-(4-(3-(1,4-dioxaspiro[4.5]decan-8-yl)-1,2,4-oxadiazol-5-yl)piperidin-1-yl)-2-(3-methyl-1,2,4-oxadiazol-5-yl)ethan-1-one]	> 10
Cc1noc(CC(=O)N2CCC(c3nc(C4CCCC4)no3)CC2)n1 [Compound 20, 1-(4-(3-cyclopentyl-1,2,4-oxadiazol-5-yl)piperidin-1-yl)-2-(3-methyl-1,2,4-oxadiazol-5-yl)ethan-1-one]	> 25
Cc1noc(CC(=O)N2CCC(n3nnc(C4CCCC4)n3)CC2)n1 [Compound 21, 1-(4-(5-cyclopentyl-2H-tetrazol-2-yl)piperidin-1-yl)-2-(3-methyl-1,2,4-oxadiazol-5-yl)ethan-1-one]	7.35
Cc1noc(CC(=O)N2CCC(c3nc(C4CCCC5CC54)no3)CC2)n1 (stereo not drawn) [Compound 22, 1-(4-(3-(bicyclo[4.1.0]heptan-2-yl)-1,2,4-oxadiazol-5-yl)piperidin-1-yl)-2-(3-methyl-1,2,4-oxadiazol-5-yl)ethan-1-one]	0.89
Cc1noc(CC(=O)N2CCC(c3nc(C4CCCCC4)no3)CC2)n1 [Compound 23, 1-(4-(3-cyclohexyl-1,2,4-oxadiazol-5-yl)piperidin-1-yl)-2-(3-methyl-1,2,4-oxadiazol-5-yl)ethan-1-one]	> 10
Cc1noc(CC(=O)N2CCC(n3nnc(C4CCCCC4)n3)CC2)n1 [Compound 24, 1-(4-(5-cyclohexyl-2H-tetrazol-2-yl)piperidin-1-yl)-2-(3-methyl-1,2,4-oxadiazol-5-yl)ethan-1-one]	> 25
Cc1noc(CC(=O)N2CCC(O)(c3nc(C4CCCCC4)no3)CC2)n1 [Compound 25, 1-(4-(3-cyclohexyl-1,2,4-oxadiazol-5-yl)-4-hydroxypiperidin-1-yl)-2-(3-methyl-1,2,4-oxadiazol-5-yl)ethan-1-one]	> 10
Cc1noc(CC(=O)N2CCC(c3nc(C45CCC(CC4)C5)no3)CC2)n1 [Compound 26, 1-(4-(3-(bicyclo[2.2.1]heptan-1-yl)-1,2,4-oxadiazol-5-yl)piperidin-1-yl)-2-(3-methyl-1,2,4-oxadiazol-5-yl)ethan-1-one]	> 25
Cc1noc(CC(=O)N2CCC(c3nc(C4(C)CCCCC4)no3)CC2)n1 [Compound 27, 2-(3-methyl-1,2,4-oxadiazol-5-yl)-1-(4-(3-(1-methylcyclohexyl)-1,2,4-oxadiazol-5-yl)piperidin-1-yl)ethan-1-one]	> 25
